Reference: patent publication US7265129B2, “Anti-infective biaryl compounds” (priority 2002, dated 2007)

How the values were obtained:
B. cereus ATCC 11778 = experiment: MIC, NCCLS broth microdilution, B. cereus; type: cell-based, Bacillus cereus
Excerpt: (§1) It vitro biological activity data were collected for a variety of microorganisms, including Bacillus cereus (ATCC 11778), Staphylococcus aureus (ATCC 33591; ATCC 27660, a methicillin resistant strain (MRSA); ATCC 13709, a methicillin sensitive strain (MSSA)), Enterococcus faecalis (ATCC 29212), and Streptococcus pneumoniae (ATCC 49619). Additionally, antifungal activity data were collected for Candida albicans (ATCC 38247).
(§2) Compounds according to this invention were screened for their in vitro activities against selected species of bacteria and fungi. The minimal inhibition concentration (MIC) of these compounds was determined using the National Committee for Clinical Laboratory Standards (NCCLS) broth microdilution assay in microtiter plates, as set forth in: (1) the guidelines of the National Committee for Clinical Laboratory Standards (NCCLS) Document M7-A4 (NCCLS, 1997); (2) the guidelines of the National Committee for Clinical Laboratory Standards (NCCLS) Document M11-A4 (NCCLS, 1997); and (3) the guidelines and reference method of the National Committee for Clinical Laboratory Standards (NCCLS) Document M27-T (NCCLS, 1995). For antifungal assays, the method recommended in Murray, P R., 1995 Manual of Clinical Microbiology (ASM Press, Washington, D.C.), was employed.

C. albicans ATCC 38247 = experiment: MIC, antifungal assay, C. albicans; type: cell-based, Candida albicans
Excerpt: as §1, §2

E. faecalis ATCC 29212 = experiment: MIC, NCCLS broth microdilution, E. faecalis; type: cell-based, Enterococcus faecalis
Excerpt: as §1, §2

S. aureus ATCC 13709 = experiment: MIC, NCCLS broth microdilution, S. aureus MSSA; type: cell-based, Staphylococcus aureus; settings: S. aureus ATCC 13709, methicillin sensitive strain (MSSA)
Excerpt: as §1, §2

S. aureus ATCC 27660 = experiment: MIC, NCCLS broth microdilution, S. aureus MRSA; type: cell-based, Staphylococcus aureus; settings: S. aureus ATCC 27660, methicillin resistant strain (MRSA)
Excerpt: as §1, §2

S. aureus ATCC 33591 = experiment: MIC, NCCLS broth microdilution, S. aureus ATCC 33591; type: cell-based, Staphylococcus aureus
Excerpt: as §1, §2

S. pneumoniae ATCC 49619 = experiment: MIC, NCCLS broth microdilution, S. pneumoniae; type: cell-based, Streptococcus pneumoniae
Excerpt: as §1, §2

Row | SMILES | Minimum Inhibitory Concentration (MIC), organism A (B. cereus ATCC 11778) | Minimum Inhibitory Concentration (MIC), organism B (C. albicans ATCC 38247) | Minimum Inhibitory Concentration (MIC), organism C (E. faecalis ATCC 29212) | Minimum Inhibitory Concentration (MIC), organism D (S. aureus ATCC 13709) | Minimum Inhibitory Concentration (MIC), organism E (S. aureus ATCC 27660) | Minimum Inhibitory Concentration (MIC), organism F (S. aureus ATCC 33591) | Minimum Inhibitory Concentration (MIC), organism G (S. pneumoniae ATCC 49619)
1 | Cn1cc(NC(=O)c2cc(NC(=O)c3ccc(Cl)cc3F)cn2CCCN2CCOCC2)cc1-c1nc2ccccc2[nH]1 [Compound A-37] | +++ (MIC ≦ 4 μg/mL) | >32 µg/mL | +++ (MIC ≦ 4 μg/mL) | +++ (MIC ≦ 4 μg/mL) | +++ (MIC ≦ 4 μg/mL) | +++ (MIC ≦ 4 μg/mL) | +++ (MIC ≦ 4 μg/mL)
2 | CC1CCN(CCCn2cc(NC(=O)c3ccc(Cl)cc3F)cc2C(=O)Nc2cc(-c3nc4ccccc4[nH]3)n(C)c2)CC1 [Compound A-38] | +++ (MIC ≦ 4 μg/mL) | + (12 ≦ MIC ≦ 32 μg/mL) | +++ (MIC ≦ 4 μg/mL) | +++ (MIC ≦ 4 μg/mL) | +++ (MIC ≦ 4 μg/mL) | +++ (MIC ≦ 4 μg/mL) | +++ (MIC ≦ 4 μg/mL)
3 | CN(C)CCCn1cc(NC(=O)c2ccc(Cl)cc2F)cc1C(=O)Nc1cc(-c2nc3cccnc3[nH]2)n(C)c1 [Compound A-39] | +++ (MIC ≦ 4 μg/mL) | + (12 ≦ MIC ≦ 32 μg/mL) | +++ (MIC ≦ 4 μg/mL) | +++ (MIC ≦ 4 μg/mL) | +++ (MIC ≦ 4 μg/mL) | +++ (MIC ≦ 4 μg/mL) | +++ (MIC ≦ 4 μg/mL)
4 | Cn1cc(NC(=O)c2cc(NC(=O)c3ccc(Cl)cc3F)cn2CCCN2CCOCC2)cc1-c1nc2cccnc2[nH]1 [Compound A-40] | +++ (MIC ≦ 4 μg/mL) | >32 µg/mL | +++ (MIC ≦ 4 μg/mL) | +++ (MIC ≦ 4 μg/mL) | +++ (MIC ≦ 4 μg/mL) | +++ (MIC ≦ 4 μg/mL) | +++ (MIC ≦ 4 μg/mL)
5 | CC1CCN(CCCn2cc(NC(=O)c3ccc(Cl)cc3F)cc2C(=O)Nc2cc(-c3nc4cccnc4[nH]3)n(C)c2)CC1 [Compound A-41] | +++ (MIC ≦ 4 μg/mL) | >32 µg/mL | +++ (MIC ≦ 4 μg/mL) | +++ (MIC ≦ 4 μg/mL) | +++ (MIC ≦ 4 μg/mL) | +++ (MIC ≦ 4 μg/mL) | +++ (MIC ≦ 4 μg/mL)
6 | Cn1cc(NC(=O)c2cc(NC(=O)c3ccc(Cl)cc3F)cn2CCCN2CCC(O)CC2)cc1-c1nc2cccnc2[nH]1 [Compound A-42] | +++ (MIC ≦ 4 μg/mL) | + (12 ≦ MIC ≦ 32 μg/mL) | +++ (MIC ≦ 4 μg/mL) | +++ (MIC ≦ 4 μg/mL) | +++ (MIC ≦ 4 μg/mL) | +++ (MIC ≦ 4 μg/mL) | +++ (MIC ≦ 4 μg/mL)
7 | Cn1cc(NC(=O)c2cc(NC(=O)c3ccc(Cl)cc3F)cn2CCCN(CCO)CCO)cc1-c1nc2cccnc2[nH]1 [Compound A-44] | + (12 ≦ MIC ≦ 32 μg/mL) | >32 µg/mL | ++ (4 < MIC < 12 μg/mL) | ++ (4 < MIC < 12 μg/mL) | +++ (MIC ≦ 4 μg/mL) | +++ (MIC ≦ 4 μg/mL) | +++ (MIC ≦ 4 μg/mL)
8 | CN(C)CCCn1cc(NC(=O)c2ccc(Cl)cc2F)cc1C(=O)Nc1cc(-c2nc3cncnc3[nH]2)n(C)c1 [Compound A-46] | +++ (MIC ≦ 4 μg/mL) | >32 µg/mL | +++ (MIC ≦ 4 μg/mL) | +++ (MIC ≦ 4 μg/mL) | +++ (MIC ≦ 4 μg/mL) | +++ (MIC ≦ 4 μg/mL) | +++ (MIC ≦ 4 μg/mL)
9 | Cn1cc(NC(=O)c2sccc2Cl)cc1C(=O)Nc1cc(-c2nc3ccccc3[nH]2)n(C)c1 [Compound A-47] | +++ (MIC ≦ 4 μg/mL) | + (12 ≦ MIC ≦ 32 μg/mL) | +++ (MIC ≦ 4 μg/mL) | +++ (MIC ≦ 4 μg/mL) | +++ (MIC ≦ 4 μg/mL) | +++ (MIC ≦ 4 μg/mL) | +++ (MIC ≦ 4 μg/mL)
10 | CC1CCN(CCCn2cc(NC(=O)c3sccc3Cl)cc2C(=O)Nc2cc(-c3nc4ccccc4[nH]3)n(C)c2)CC1 [Compound A-52] | +++ (MIC ≦ 4 μg/mL) | + (12 ≦ MIC ≦ 32 μg/mL) | +++ (MIC ≦ 4 μg/mL) | +++ (MIC ≦ 4 μg/mL) | +++ (MIC ≦ 4 μg/mL) | +++ (MIC ≦ 4 μg/mL) | +++ (MIC ≦ 4 μg/mL)
11 | Cn1cc(NC(=O)c2cc(NC(=O)c3sccc3Cl)cn2CCCN2CCC(O)CC2)cc1-c1nc2ccccc2[nH]1 [Compound A-53] | +++ (MIC ≦ 4 μg/mL) | + (12 ≦ MIC ≦ 32 μg/mL) | ++ (4 < MIC < 12 μg/mL) | +++ (MIC ≦ 4 μg/mL) | +++ (MIC ≦ 4 μg/mL) | +++ (MIC ≦ 4 μg/mL) | +++ (MIC ≦ 4 μg/mL)
12 | Cn1cc(NC(=O)c2cc(NC(=O)c3sccc3Cl)cn2CCCN(CCO)CCO)cc1-c1nc2ccccc2[nH]1 [Compound A-55] | + (12 ≦ MIC ≦ 32 μg/mL) | >32 µg/mL | + (12 ≦ MIC ≦ 32 μg/mL) | + (12 ≦ MIC ≦ 32 μg/mL) | ++ (4 < MIC < 12 μg/mL) | ++ (4 < MIC < 12 μg/mL) | ++ (4 < MIC < 12 μg/mL)
13 | Cn1cc(NC(=O)c2cc(NC(=O)c3sccc3Cl)cn2CCC[n+]2ccccc2)cc1-c1nc2ccccc2[nH]1 [Compound A-56] | >32 µg/mL | >32 µg/mL | >32 µg/mL | + (12 ≦ MIC ≦ 32 μg/mL) | + (12 ≦ MIC ≦ 32 μg/mL) | + (12 ≦ MIC ≦ 32 μg/mL) | >32 µg/mL
